{"source": "ChEMBL document CHEMBL1201862", "about": "“PubChem BioAssay data set” (2004)", "assay_in_all_cases": "NCI tumour cell line growth inhibition, 48 h", "key": {"786-0": {"system": "786-0"}, "A498": {"system": "A498"}, "A549": {"system": "A549"}, "ACHN": {"system": "ACHN"}, "CAKI-1": {"system": "CAKI-1"}, "CCRF-CEM": {"system": "CCRF-CEM"}, "COLO 205": {"system": "COLO 205"}, "DU-145": {"system": "DU-145"}, "EKVX": {"system": "EKVX"}, "HCT-116": {"system": "HCT-116"}, "HCT-15": {"system": "HCT-15"}, "HL-60": {"system": "HL-60"}, "HOP-92": {"system": "HOP-92"}, "HT-29": {"system": "HT-29"}, "IGROV-1": {"system": "IGROV-1"}, "K562": {"system": "K562"}, "KM12": {"system": "KM12"}, "LOX IMVI": {"system": "LOX IMVI"}, "M14": {"system": "M14"}, "MCF7": {"system": "MCF7"}, "MDA-MB-231": {"system": "MDA-MB-231"}, "MDA-MB-435": {"system": "MDA-MB-435"}, "MDA-N": {"system": "MDA-N"}, "MOLT-4": {"system": "MOLT-4"}, "NCI-H226": {"system": "NCI-H226"}, "NCI-H460": {"system": "NCI-H460"}, "NCI/ADR-RES": {"system": "NCI/ADR-RES"}, "OVCAR-3": {"system": "OVCAR-3"}, "OVCAR-4": {"system": "OVCAR-4"}, "OVCAR-5": {"system": "OVCAR-5"}, "OVCAR-8": {"system": "OVCAR-8"}, "RXF 393": {"system": "RXF 393"}, "SF-295": {"system": "SF-295"}, "SF-539": {"system": "SF-539"}, "SK-MEL-28": {"system": "SK-MEL-28"}, "SK-MEL-2": {"system": "SK-MEL-2"}, "SK-MEL-5": {"system": "SK-MEL-5"}, "SK-OV-3": {"system": "SK-OV-3"}, "SN12C": {"system": "SN12C"}, "SNB-19": {"system": "SNB-19"}, "SNB-75": {"system": "SNB-75"}, "SR": {"system": "SR"}, "SW-620": {"system": "SW-620"}, "TK-10": {"system": "TK-10"}, "U-251": {"system": "U-251"}, "UACC-257": {"system": "UACC-257"}, "UACC-62": {"system": "UACC-62"}, "UO-31": {"system": "UO-31"}, "HCC 2998": {"system": "HCC 2998"}, "Hs-578T": {"system": "Hs-578T"}, "NCI-H23": {"system": "NCI-H23"}, "PC-3": {"system": "PC-3"}, "RPMI-8226": {"system": "RPMI-8226"}, "SF-268": {"system": "SF-268"}}, "note": "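Values below derive from 48-hour exposures of cells grown in 96-well plates, with endpoints linearly interpolated between the two concentrations bracketing the appropriate inhibition level. GI50 is the concentration that inhibits growth by half.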 The source made the active and inactive calls. Cut-off read from the data, not from the text of the source: active = GI50 up to about 1.1 µM and inactive = higher.", "data": [{"molecule": "CCCCOCn1c(=O)[nH]c(=O)c2ccccc21", "values": [{"measurement": "GI50", "setting": "786-0", "result": "> 100 µM (inactive)"}, {"measurement": "GI50", "setting": "A498", "result": "> 100 µM (inactive)"}, {"measurement": "GI50", "setting": "A549", "result": "> 100 µM (inactive)"}, {"measurement": "GI50", "setting": "ACHN", "result": "32.9 µM (inactive)"}, {"measurement": "GI50", "setting": "CAKI-1", "result": "> 100 µM (inactive)"}, {"measurement": "GI50", "setting": "CCRF-CEM", "result": "> 100 µM (inactive)"}, {"measurement": "GI50", "setting": "COLO 205", "result": "> 100 µM (inactive)"}, {"measurement": "GI50", "setting": "DU-145", "result": "> 100 µM (inactive)"}, {"measurement": "GI50", "setting": "EKVX", "result": "44.9 µM (inactive)"}, {"measurement": "GI50", "setting": "HCT-116", "result": "> 100 µM (inactive)"}, {"measurement": "GI50", "setting": "HCT-15", "result": "> 100", "unit": "µM"}, {"measurement": "GI50", "setting": "HL-60", "result": "68.4 µM (inactive)"}, {"measurement": "GI50", "setting": "HOP-92", "result": "> 100 µM (inactive)"}, {"measurement": "GI50", "setting": "HT-29", "result": "40.3 µM (inactive)"}, {"measurement": "GI50", "setting": "IGROV-1", "result": "49 µM (inactive)"}, {"measurement": "GI50", "setting": "K562", "result": "> 100 µM (inactive)"}, {"measurement": "GI50", "setting": "KM12", "result": "> 100 µM (inactive)"}, {"measurement": "GI50", "setting": "LOX IMVI", "result": "> 100 µM (inactive)"}, {"measurement": "GI50", "setting": "M14", "result": "> 100 µM (inactive)"}, {"measurement": "GI50", "setting": "MCF7", "result": "68.9 µM (inactive)"}, {"measurement": "GI50", "setting": "MDA-MB-231", "result": "33.3 µM (inactive)"}, {"measurement": "GI50", "setting": "MDA-MB-435", "result": "> 100 µM (inactive)"}, {"measurement": "GI50", "setting": "MDA-N", "result": "> 100 µM (inactive)"}, {"measurement": "GI50", "setting": "MOLT-4", "result": "> 100 µM (inactive)"}, {"measurement": "GI50", "setting": "NCI-H226", "result": "49.5 µM (inactive)"}, {"measurement": "GI50", "setting": "NCI-H460", "result": "88.1 µM (inactive)"}, {"measurement": "GI50", "setting": "NCI/ADR-RES", "result": "22.8 µM (inactive)"}, {"measurement": "GI50", "setting": "OVCAR-3", "result": "> 100 µM (inactive)"}, {"measurement": "GI50", "setting": "OVCAR-4", "result": "35.7 µM (inactive)"}, {"measurement": "GI50", "setting": "OVCAR-5", "result": "> 100 µM (inactive)"}, {"measurement": "GI50", "setting": "OVCAR-8", "result": "37.5 µM (inactive)"}, {"measurement": "GI50", "setting": "RXF 393", "result": "48.2 µM (inactive)"}, {"measurement": "GI50", "setting": "SF-295", "result": "> 100 µM (inactive)"}, {"measurement": "GI50", "setting": "SF-539", "result": "> 100 µM (inactive)"}, {"measurement": "GI50", "setting": "SK-MEL-28", "result": "> 100 µM (inactive)"}, {"measurement": "GI50", "setting": "SK-MEL-2", "result": "91.8 µM (inactive)"}, {"measurement": "GI50", "setting": "SK-MEL-5", "result": "54.1 µM (inactive)"}, {"measurement": "GI50", "setting": "SK-OV-3", "result": "> 100 µM (inactive)"}, {"measurement": "GI50", "setting": "SN12C", "result": "> 100 µM (inactive)"}, {"measurement": "GI50", "setting": "SNB-19", "result": "14.9 µM (inactive)"}, {"measurement": "GI50", "setting": "SNB-75", "result": "13.3 µM (inactive)"}, {"measurement": "GI50", "setting": "SR", "result": "> 100 µM (inactive)"}, {"measurement": "GI50", "setting": "SW-620", "result": "> 100 µM (inactive)"}, {"measurement": "GI50", "setting": "TK-10", "result": "> 100 µM (inactive)"}, {"measurement": "GI50", "setting": "U-251", "result": "> 100 µM (inactive)"}, {"measurement": "GI50", "setting": "UACC-257", "result": "78.7 µM (inactive)"}, {"measurement": "GI50", "setting": "UACC-62", "result": "> 100 µM (inactive)"}, {"measurement": "GI50", "setting": "UO-31", "result": "13.1 µM (inactive)"}]}, {"molecule": "Cc1cc(NCCCCCCNc2cc(C)nc3ccc(N)cc23)c2cc(N)ccc2n1", "values": [{"measurement": "GI50", "setting": "SNB-19", "result": "37 µM (inactive)"}, {"measurement": "GI50", "setting": "U-251", "result": "42.3 µM (inactive)"}]}, {"molecule": "CCOC(=O)C(Cl)(NC(=O)NC(Cl)(C(=O)OCC)C(F)(F)F)C(F)(F)F", "note": "(stereo not drawn)", "values": [{"measurement": "GI50", "setting": "786-0", "result": "> 100 µM (inactive)"}, {"measurement": "GI50", "setting": "A498", "result": "> 100 µM (inactive)"}, {"measurement": "GI50", "setting": "ACHN", "result": "> 100 µM (inactive)"}, {"measurement": "GI50", "setting": "CCRF-CEM", "result": "> 100 µM (inactive)"}, {"measurement": "GI50", "setting": "COLO 205", "result": "> 100 µM (inactive)"}, {"measurement": "GI50", "setting": "HCC 2998", "result": "> 100 µM (inactive)"}, {"measurement": "GI50", "setting": "HCT-116", "result": "> 100 µM (inactive)"}, {"measurement": "GI50", "setting": "HCT-15", "result": "> 100", "unit": "µM"}, {"measurement": "GI50", "setting": "HL-60", "result": "> 100 µM (inactive)"}, {"measurement": "GI50", "setting": "HT-29", "result": "> 100 µM (inactive)"}, {"measurement": "GI50", "setting": "Hs-578T", "result": "> 100 µM (inactive)"}, {"measurement": "GI50", "setting": "K562", "result": "> 100 µM (inactive)"}, {"measurement": "GI50", "setting": "LOX IMVI", "result": "> 100 µM (inactive)"}, {"measurement": "GI50", "setting": "MDA-N", "result": "> 100 µM (inactive)"}, {"measurement": "GI50", "setting": "MOLT-4", "result": "> 100 µM (inactive)"}, {"measurement": "GI50", "setting": "NCI-H23", "result": "> 100 µM (inactive)"}, {"measurement": "GI50", "setting": "NCI/ADR-RES", "result": "> 100 µM (inactive)"}, {"measurement": "GI50", "setting": "OVCAR-5", "result": "> 100 µM (inactive)"}, {"measurement": "GI50", "setting": "PC-3", "result": "> 100 µM (inactive)"}, {"measurement": "GI50", "setting": "RPMI-8226", "result": "> 100 µM (inactive)"}, {"measurement": "GI50", "setting": "RXF 393", "result": "> 100 µM (inactive)"}, {"measurement": "GI50", "setting": "SF-268", "result": "> 100 µM (inactive)"}, {"measurement": "GI50", "setting": "SF-539", "result": "> 100 µM (inactive)"}, {"measurement": "GI50", "setting": "SK-MEL-28", "result": "> 100 µM (inactive)"}, {"measurement": "GI50", "setting": "SK-MEL-2", "result": "> 100 µM (inactive)"}, {"measurement": "GI50", "setting": "SK-OV-3", "result": "> 100 µM (inactive)"}, {"measurement": "GI50", "setting": "SN12C", "result": "> 100 µM (inactive)"}, {"measurement": "GI50", "setting": "SNB-19", "result": "> 100 µM (inactive)"}, {"measurement": "GI50", "setting": "SNB-75", "result": "> 100 µM (inactive)"}, {"measurement": "GI50", "setting": "SR", "result": "> 100 µM (inactive)"}, {"measurement": "GI50", "setting": "U-251", "result": "> 100 µM (inactive)"}, {"measurement": "GI50", "setting": "UACC-257", "result": "> 100 µM (inactive)"}, {"measurement": "GI50", "setting": "UO-31", "result": "> 100 µM (inactive)"}]}]}
